Results as given in PMC6037002, “Drug targeting to decrease cardiotoxicity – determination of the cytotoxic effect of GnRH-based conjugates containing doxorubicin, daunorubicin and methotrexate on human cardiomyocytes and endothelial cells” (Beilstein Journal of Organic Chemistry, 2018).
Read-outs that look alike come from different tables or passages of the source.

Key:
[1] = tested on: human umbilical vein endothelial cells (HUVEC); test: Impedimetric measurement (xCELLigence SP), delta slope, HUVEC; details: HUVEC, three parallels; for delta slope (DS), short-term: 0–2 h; for delta slope (DS), long-term: 0–72 h
[2] = tested on: primary human cardiac myocytes (HCM); details: HCM, three parallels; for delta slope (DS), short-term: 0–2 h; for delta slope (DS), long-term: 0–72 h
[3] = tested on: HT-29 human colon adenocarcinoma cells; details: MTT assay; cited from earlier work
Excerpt: (§1) Table 1 Comparative study of cytotoxic effects and cardiotoxicity elicited by GnRH-based antitumor compounds (1–15) and reference substances (AN-152, Dox, Dau, Mtx). IC50 values show antitumor cytotoxic characteristics of the conjugates in human breast cancer (MCF-7), human colorectal adenocarcinoma (HT-29) and human acute monocytic leukemia (MM6) derived cell lines as representative tumor cells.

[4] = tested on: human acute monocytic leukemia (MonoMac6) cells; details: cited from earlier work
Excerpt: as §1

[5] = tested on: MCF-7 human breast adenocarcinoma cells; details: MTT assay; cited from earlier work
Excerpt: as §1

## COc1cccc2c1C(=O)c1c(O)c3c(c(O)c1C2=O)C[C@@](O)(C(C)=O)C[C@@H]3O[C@H]1C[C@H](N)[C@H](O)[C@H](C)O1 [daunorubicin]
[1]; Table S1a, 10^-6 mol/L
  delta slope (DS), short-term: 0.047
  delta slope (DS), long-term: −0.019
[1]; Table S1a, 10^-7 mol/L
  delta slope (DS), short-term: 0.055
  delta slope (DS), long-term: −0.007
[1]; Table S1a, 10^-8 mol/L
  delta slope (DS), short-term: 0.018
  delta slope (DS), long-term: -0.001
[1]; Table S1a, 10^-9 mol/L
  delta slope (DS), short-term: -0.008
  delta slope (DS), long-term: -0.00113
[1]; Table S1a, 10^-10 mol/L
  delta slope (DS), short-term: -0.008
  delta slope (DS), long-term: 0.001
[1]; Table S1a, 10^-11 mol/L
  delta slope (DS), short-term: 0.008
  delta slope (DS), long-term: 0.002
[1]; Table S1a, 10^-12 mol/L
  delta slope (DS), short-term: -0.005
  delta slope (DS), long-term: -0.001
[1]; Table S1a, 10^-6 mol/L, listed as Daunorubicin
  delta slope (DS), long-term: -0.019
[1]; Table S1a, 10^-7 mol/L, listed as Daunorubicin
  delta slope (DS), long-term: -0.007
[1]; Table S3a, 10^-6 mol/L
  delta slope (DS), short-term: 0.003
  delta slope (DS), long-term: -0.010
[1]; Table S3a, 10^-7 mol/L
  delta slope (DS), short-term: -0.002
  delta slope (DS), long-term: 0.001
[1]; Table S3a, 10^-8 mol/L
  delta slope (DS), short-term: -0.008
[1]; Table S4a, 10^-6 mol/L
  delta slope (DS), short-term: 0.009
  delta slope (DS), long-term: -0.058
[1]; Table S4a, 10^-7 mol/L
  delta slope (DS), short-term: 0.016
  delta slope (DS), long-term: 0.004
[1]; Table S4a, 10^-8 mol/L
  delta slope (DS), short-term: 0.005
  delta slope (DS), long-term: 0.006
[2]; Table S1b, 10^-6 mol/L
  delta slope (DS), short-term: 0.031
  delta slope (DS), long-term: −0.019
[2]; Table S1b, 10^-7 mol/L
  delta slope (DS), short-term: -0.001
  delta slope (DS), long-term: −0.007
[2]; Table S1b, 10^-8 mol/L
  delta slope (DS), short-term: 0.001
  delta slope (DS), long-term: -0.001
[2]; Table S1b, 10^-9 mol/L
  delta slope (DS), short-term: -0.001
  delta slope (DS), long-term: -0.001
[2]; Table S1b, 10^-10 mol/L
  delta slope (DS), short-term: -0.001
  delta slope (DS), long-term: -0.001
[2]; Table S1b, 10^-11 mol/L
  delta slope (DS), short-term: -0.001
  delta slope (DS), long-term: -0.001
[2]; Table S1b, 10^-12 mol/L
  delta slope (DS), short-term: -0.001
  delta slope (DS), long-term: -0.001
[2]; Table S1b, 10^-6 mol/L, listed as Daunorubicin
  delta slope (DS), long-term: -0.019
[2]; Table S1b, 10^-7 mol/L, listed as Daunorubicin
  delta slope (DS), long-term: -0.007
[2]; Table S3b, 10^-6 mol/L
  delta slope (DS), short-term: 0.028
  delta slope (DS), long-term: -0.021
[2]; Table S3b, 10^-8 mol/L
  delta slope (DS), short-term: -0.001
  delta slope (DS), long-term: -0.001
[2]; Table S3b, 10^-7 mol/L
  delta slope (DS), long-term: -0.006
[2]; Table S4b, 10^-6 mol/L
  delta slope (DS), short-term: 0.030
  delta slope (DS), long-term: -0.024
[2]; Table S4b, 10^-7 mol/L
  delta slope (DS), short-term: -0.009
  delta slope (DS), long-term: -0.009
[2]; Table S4b, 10^-8 mol/L
  delta slope (DS), short-term: -0.001
  delta slope (DS), long-term: -0.001
[2]; Table S5b, 10^-8 mol/L
  delta slope (DS), short-term: -0.001
  delta slope (DS), long-term: -0.001
[3]
  IC50: 300 ± 200 nM
[4]
  IC50: 0.08 ± 0.1 nM
[5]
  IC50: 400 ± 100 nM
